Laboratory results from article PMC10560666, “Four new triterpene saponins from Cephalaria speciosa and their potent cytotoxic and immunomodulatory activities” (Scientific Reports, 2023).

Experiments:
[1] = test system: HepG-2 human hepatocellular carcinoma cells; assay: MTT cytotoxicity on HepG-2; assay type: cell-based; conditions: Homo sapiens, HepG2, 48 h, mean ± standard deviation, n = 3, – = Not detected
Method: (§1) The human leukemia monocyte cell line (THP-1), human lung adenocarcinoma cell line (A549), human breast cancer cells (MDA-MB231), human prostate adenocarcinoma cells (PC3), human malignant glioma cell line (U87MG), human cervical gland carcinoma cells (HeLa), human hepatocellular carcinoma cells (HEP-G2) and normal human lung fibroblast cells (CCD-34-LU) as a healthy cell line in our stock used in this study were purchased from American Type Culture Collection (ATCC). THP-1 cells were cultured in Roswell Park Memorial Institute (RPMI 1640) medium and MDA-MB231, PC3, U87 MG, HeLa, HEP-G2, and CCD-34-LU cells cultivated in Dulbecco’s Modified Eagle’s Medium/Nutrient Mixture F-12 (DMEM/F12) (Gibco, USA) medium supplemented with 10% FBS (Gibco, USA), 100U/mL of penicillin 100 µg/mL of streptomycin (Gibco, USA), and 2 mM L-glutamine (Gibco, USA).
(§2) Cytotoxicity of saponins (1–4) and their prosapogenins (2a–4a) were tested against A549, MDA-MB-231, PC-3, U87MG, HeLa, HepG-2 cancer cells and CCD34-Lu healthy cell line using MTT [3-(4,5-dimethylthiazole-2-yl)-2,5-diphenyltetrazolium bromide)] assay (Acros Organics, New Jersey, USA)[11], [23]. For this purpose, 1 × 10^5 cells/mL of all the cell lines were seeded in 96-well plates (Corning, USA) and cultivated in the at 37 °C overnight. After the incubation, the cells were incubated with different concentrations of saponins (50, 5, and 0.5 µg/mL), and doxorubicin (Sigma, USA) (20, 2, and 0.2 µg/mL) for 48 h at 37 °C. Then, the MTT was added as 20 μL (from the stock concentration of 2.5 mg/mL) to all wells and further incubated for 4 h at 37 °C. Following the incubation, the medium was removed and 150 µL DMSO was added to dissolve the formed formazan crystals. After the formazan crystals were completely dissolved, the optical density (OD) was measured at 570 nm with an UV/Vis microplate spectrophotometer (Thermo Fisher Scientific, USA). All data are the results of at least three independent experiments carried out in triplicate. Data are presented as mean ± standard error of the mean (SEM) of samples. The IC50 value was calculated using the GraphPad Prism 8 (USA) program based on the calculated percent viability values and absorbance values. The percentage of viability was determined by Eq. (1):1 %Viablecells=absorbanceoftreatedcells-absorbanceofblank/absorbanceofcontrol-absorbanceofblank×100

[2] = test system: THP-1 originated-macrophage; assay: MTT cytotoxicity on THP-1 originated macrophages; assay type: cell-based, human; conditions: Homo sapiens, THP-1, 48 h, mean ± standard deviation, n = 3, – = Not detected
[3] = test system: HeLa human cervical gland carcinoma cells; assay: MTT cytotoxicity on HeLa; assay type: cell-based; conditions: Homo sapiens, HeLa, 48 h, mean ± standard deviation, n = 3, – = Not detected
Method: as §1, §2

[4] = test system: MDA-MB-231 human breast cancer cells; assay: MTT cytotoxicity on MDA-MB-231; assay type: cell-based; conditions: Homo sapiens, MDA-MB-231, 48 h, mean ± standard deviation, n = 3, – = Not detected
Method: as §1, §2

[5] = test system: U87MG human malignant glioma cell line; assay: MTT cytotoxicity on U87MG; assay type: cell-based; conditions: Homo sapiens, U-87 MG, 48 h, mean ± standard deviation, n = 3, – = Not detected
Method: as §1, §2

[6] = test system: A549 human lung adenocarcinoma cell line; assay: MTT cytotoxicity on A549; assay type: cell-based; conditions: Homo sapiens, A549, 48 h, mean ± standard deviation, n = 3, – = Not detected
Method: as §1, §2

[7] = test system: PC-3 human prostate adenocarcinoma cells; assay: MTT cytotoxicity on PC-3; assay type: cell-based; conditions: Homo sapiens, 48 h, mean ± standard deviation, n = 3, – = Not detected
Method: as §1, §2

[8] = test system: CCD-34Lu normal human lung fibroblast cells; assay: MTT cytotoxicity on CCD-34Lu healthy cells; assay type: cell-based; conditions: Homo sapiens, Fibroblast, 48 h, mean ± standard deviation, n = 3, – = Not detected
Method: as §1, §2

[9] = test system: THP-1 derived macrophage cells; assay: Macrophage polarization by flow cytometry (CD11b, CD80, CD163 MFI); assay type: cell-based, human; conditions: saponin 3 µg/mL, 24 h, PMA-differentiated THP-1, mean ± SD, n = 3
Method: To differentiate THP-1 cells into M0-THP-1, cells were seeded at an initial concentration of 1 × 10^6 cells/mL in 6-well plates (Corning, USA) and treated with 15 ng/mL phorbol 12-myristate 13—acetate (PMA, Sigma USA). Then incubate at 5% CO2, 37 °C for 48 h[24]. To evaluate the potential of saponins with/without infectious bronchitis virus (IBV) D274 antigen on macrophage polarization, THP-1 cells were treated with saponins at 3 µg/mL and then incubated for 24 h with or without 4 µL of inactivated IBV D274 antigens (final titer of 1 HA). […] Based on the results of our previous research, the saponin concentration was selected as a non-cytotoxic concentration. At the end of the incubation period, the cells were collected by trypsinization and washed three times with PBS. Following, 1 µL of PE anti-human CD80 (Biolegend, CA), FITC anti-human CD163 (Biolegend, CA), and FITC anti-human CD11b (Biolegend, CA) antibodies were added into the cells pellet and incubated for 45 min at room temperature in the dark. The cells pellets underwent two PBS washes following incubation. Finally, the cells were subsequently analyzed by flow cytometry (BD Accuri, C5). 1 × 10^4 cells were counted for each sample group using flow cytometry. All data are the results of at least three independent experiments carried out in triplicate. Data are presented as mean ± standard error of the mean (SEM) of samples. The untreated stained macrophage cells with anti-human CD80, FITC anti-human CD163, and FITC anti-human CD11b were compared with the results of treated cells to obtain from M0 polarization to M1 and M2 or both.
Figure 2 (a) Saponins without antigen treatment, (b) Saponins treated with antigen. THP-1 cells were treated with 15 ng/ml PMA and 3 µg/ml saponins and 1 HA titer of IBV D274 induced in the saponins with antigen group for 24 h incubation. The macrophage polarization was determined with flow cytometry. Each value represents the mean ± standard deviation of three independents measurements. (P < 0.05*, P < 0.01**, P < 0.001***).

[10] = with inactivated IBV D274 antigen (1 HA)

SMILES	IC50 [1]	IC50 [2]	IC50 [3]	IC50 [4]	IC50 [5]	IC50 [6]	IC50 [7]	IC50 [8]	MFI of CD 11b (M0 marker) [9, 10]	MFI of CD80 (M1 marker) [9, 10]	MFI of CD163 (M2 marker) [9, 10]	MFI of CD 11b (M0 marker) ([9]; without antigen)	MFI of CD80 (M1 marker) ([9]; without antigen)	MFI of CD163 (M2 marker) ([9]; without antigen)
C[C@@H]1O[C@@H](O[C@H]2[C@H](O[C@H]3CC[C@@]4(C)C(CC[C@]5(C)C4CC=C4C6CC(C)(C)CC[C@]6(C(=O)O[C@@H]6O[C@H](CO[C@@H]7O[C@H](CO)[C@@H](O)[C@H](O)[C@H]7O)[C@@H](O)[C@H](O)[C@H]6O)CC[C@]45C)C3(C)C)O[C@H](CO)[C@H](O)[C@@H]2O)[C@H](O)[C@H](O)[C@H]1O (stereo partly drawn) [Compound 2, 3-O-α-L-rhamnopyranosyl-(1 → 2)-β-D-galactopyranosyl-oleanoic acid-28-O-β-D-glucopyranosyl-(1 → 6)-β-D-glucopyranosyl ester]	> 45.9 µM	> 45.9 µM	> 45.9 µM	> 45.9 µM	> 45.9 µM	> 45.9 µM	> 45.9 µM	> 45.9 µM	33,053.20 ± 951.60	4516.00 ± 223.23	7441.00 ± 423.23	29,875.39 ± 3311.75	3,629.71 ± 142.80	6,206.45 ± 185.19
C[C@@H]1O[C@@H](O[C@H]2[C@H](O[C@H]3CC[C@@]4(C)C(CC[C@]5(C)C4CC=C4C6CC(C)(C)CC[C@]6(C(=O)O)CC[C@]45C)C3(C)C)O[C@H](CO)[C@H](O)[C@@H]2O)[C@H](O)[C@H](O)[C@H]1O (stereo partly drawn) [Compound 2a, 3-O-α-L-rhamopyranosyl-(1 → 2)-β-D-galactopyranosyl oleanoic acid]	> 65.4 µM	37.3 ± 8.17 µM	> 65.4 µM	24.3 ± 2.65 µM	> 65.4 µM	20.8 ± 0.46 µM	> 65.4 µM	> 65.4 µM	28,297.32 ± 808.92	4727.00 ± 221.96	7408.64 ± 224.16	26,304.81 ± 2370.42	3,962.53 ± 246.09	–
